System: lactobacillus
Experiment: Liquid culture of lactobacillus
Type: cell-based

CC(=O)N[C@H]1C(O)O[C@H](CO)[C@@H](O)[C@@H]1O (stereo partly drawn) [N-acetyl-D-glucosamine]
growth of lactobacillus: could promote the growth of lactobacillus

From patent US7704976B2, “Use of N-acetyl-D-glucosamine for preparing medicines for urogenital tract infection's treatment and prevention” (Third Military Medical University, Chinese People's …, priority 2002, dated 2010)
